Reference: patent publication US12161657B2, “Combinatorial therapy for use in inducing immunogenic cell death in cancer cells” (priority 2021, dated 2024)

Key:
[1] = 2-DG administration, patients; cited from earlier work
[2] = test system: MCF-7 (human breast cancer); experiment: MTS cell viability assay, MCF-7 cells; assay type: cell-based; conditions: for efficacy in killing cancer cells: MCF7, concentration 6× lower than the ED50 concentrations, FIG. 3b; for EC50: Homo sapiens, MCF7, MTS, 48 hours, individual drug, read-out: ED50 in MCF-7
Method: (§1) The 50% effective dose (or ED50) for 2-DG, MTX, and WGN (individually) against the cancer cell lines 4T1 (mouse breast cancer), MCF-7 (human breast cancer), THP-1 (human myelomonocytic cancer), and B16-F10 (mouse melanoma) was determined (Table 1). The cell lines were specifically chosen for their extremely aggressive nature. For example, the cell lines have evolved multiple mechanisms of resistance to cell death and are highly metastatic (e.g., equivalent to a stage 4 cancer model). In this assay, a Determination of the ED50 using the MTS cell viability assay
(§2) Analysis of the effects of MTX-2DG-WGN combination on cell growth was performed with an MTS kit (CellTiter 96® AQueous One Solution Cell Proliferation Assay Kit, Promega, Madison, WI, USA) according to the manufacturer's instruction. 4-T1, MCF-7, B16-F10, and THP-1 cells were seeded into 96-well plates at a density of 10×10^3 cells per well with three replicates. The cells were treated as indicated (MTX, 2DG, and WGN were added initially at concentrations of 100 μM, 50 mM, and 200 μM, respectively, followed by serial two-fold dilutions) and incubated for 48 hours at 5% CO2 at 37° C. After 48 h, 20 μL of CellTiter 96® AQueous One Solution MTS (5 mg/mL) (Promega—Madison, WI, USA) was added to each well and incubated at 5% CO2 at 37° C. for an additional 4 hours. Absorbance readings were taken in an Epoch microplate reader at 490 nm. Computed data was compared to untreated and normalized cells. Cells that were not administered any treatment were considered the control group. Cell viability was calculated by the following formula: Cell viability (%)=(average OD in treated group/average OD in control group)×100%. A dose-activity curve with the concentration spectrum was prepared.
(§3) The EC50 was extrapolated from the dose-response graph. The drug concentration that caused 50% maximum effect with regards to cytotoxicity was determined by plotting triplicate data points over a concentration range and calculating values using regression analysis of GraphPad PRISM v8 program.
(§4) MTX, 2-DG, and WGN were tested alone and in combination. […] The combination of all 3 compounds was also tested, along with a negative control (untreated). The results are shown for 4T1 mouse breast cancer cells (FIG. 3a) and MCF7 human breast cancer cells (FIG. 3b).
(§5) The testing protocol was the same as that described for the ED50 noted above.

[3] = test system: 4T1 (mouse breast cancer); experiment: MTS cell viability assay, 4T1 cells; assay type: cell-based; conditions: for efficacy in killing cancer cells: 4T1, concentration 6× lower than the ED50 concentrations, FIG. 3a; for EC50: Mus musculus, 4T1, MTS, 48 hours, individual drug, read-out: ED50 in 4T1
Method: as §1, §2, §3, §4, §5

[4] = 2-DG used alone; cited from earlier work
[5] = test system: dihydrofolate reductase (DHFR); conditions: cited from earlier work
[6] = test system: THP-1 (human myelomonocytic cancer); experiment: MTS cell viability assay, THP-1 cells; assay type: cell-based; conditions: 48 hours, individual drug, read-out: ED50 in THP-1
Method: as §1
(§6) Analysis of the effects of MTX-2DG-WGN combination on cell growth was performed with an MTS kit (CellTiter 96® AQueous One Solution Cell Proliferation Assay Kit, Promega, Madison, WI, USA) according to the manufacturer's instruction. […] Absorbance readings were taken in an Epoch microplate reader at 490 nm. […] Cell viability was calculated by the following formula: Cell viability (%)=(average OD in treated group/average OD in control group)×100%. […]
(§7) The EC50 was extrapolated from the dose-response graph. The drug concentration that caused 50% maximum effect with regards to cytotoxicity was determined by plotting triplicate data points over a concentration range and calculating values using regression analysis of GraphPad PRISM v8 program. […]

B16-F10 (mouse melanoma) = experiment: MTS cell viability assay, B16-F10 cells; assay type: cell-based; conditions: 48 hours, individual drug, read-out: ED50 in B16-F10
Method: as §1, §6, §7

[7] = test system: 4T1 mouse breast cancer cells 3D cancerspheres; experiment: 3D cancersphere viability, 4T1; assay type: cell-based; conditions: 4T1 cancerspheres, 48 h treatment; doxorubicin 25 μM, FIGS. 7a, 7b
Method: (§8) A new model for tumor growth in vitro has been established as 3D cultures known as cancerspheres. To evaluate the clinical translatability and predictivity of the novel combinatorial therapy in vivo, 3D cancerspheres suspended in media containing extracellular matrix proteins (ECM) were treated with the combination of MTX, 2-DG, and WGN.
(§9) Mammary tumorspheres were grown using Matrigel® Extracellular Matrix Basement Membrane (Corning, USA). […]
(§10) After 8 days of culture and 48 h treatment, tumorspheres of roughly 50 cells or more were selected for qualitative analysis. […] After 5 min, tumorspheres were analyzed microscopically. […] Dead (non-viable) spheroids were characterized as stained and displaying no luminescence.
(§11) On the 8th day of culture, media from MCF-7 and 4-T1 mammary tumorsphere cultures was changed and cells were then treated with either our novel combinatorial therapy or 25 μM doxorubicin. […] Absorbance readings were taken in an Epoch microplate reader at 490 nm. […] Cell viability was calculated by the following formula: Cell viability (%)=(average OD in treated group/average OD in control group)×100%.

[8] = test system: MCF-7 human breast cancer cells 3D cancerspheres; experiment: 3D cancersphere viability, MCF-7; assay type: cell-based; conditions: MCF-7 cancerspheres, 48 h treatment; doxorubicin 25 μM, FIGS. 7c, 7d
Method: as §8, §9, §10, §11

| Structure (SMILES) | doses at which adverse effects occur [1] | efficacy in killing cancer cells [2] | efficacy in killing cancer cells [3] | concentration needed to be effective when used alone [4] | affinity for DHFR relative to folate [5] | EC50 [6] | EC50 (B16-F10 (mouse melanoma)) | EC50 [2] | EC50 [3] | efficacy against 3D cancerspheres [7] | efficacy against 3D cancerspheres [8] |
| --- | --- | --- | --- | --- | --- | --- | --- | --- | --- | --- | --- |
| OCC1O[C@H](O)C[C@@H](O)[C@@H]1O (mixture of isomers) [2-DG, 2-deoxyglucose] | above 63 mg/kg | no effect whatsoever | no effect whatsoever | > 5 mM | – | – | – | – | – | – | – |
| CN(Cc1cnc2nc(N)nc(N)c2n1)c1ccc(C(=O)N[C@@H](CCC(=O)O)C(=O)O)cc1 [MTG, Methotrexate] | – | no effect whatsoever | no effect whatsoever | – | about 1000 fold | 1.82 µM | 0.019 µM | 0.049 µM | 0.049 µM | – | – |
| COc1c(O)cc(O)c2c(=O)cc(-c3ccccc3)oc12 [WGN, Wogonin] | – | no effect whatsoever | no effect whatsoever | – | – | 83 µM | 76 µM | 20.2 µM | 85 µM | – | – |
| COc1cccc2c1C(=O)c1c(O)c3c(c(O)c1C2=O)C[C@@](O)(C(=O)CO)C[C@@H]3O[C@H]1C[C@H](N)[C@H](O)[C@H](C)O1 [doxorubicin] | – | – | – | – | – | – | – | – | – | resistant | resistant |
